Data from a melting point compilation (Tetko et al.; mined from patent text by program, amines drawn as free bases though some values may be those of a salt).

| melting point [°C] | Structure (SMILES) |
| --- | --- |
| 127 to 130 | O=C(O)COc1c(-c2cccc(C(F)(F)F)c2)cc(C(=O)NCCCCCCOCc2ccc(OCc3ccccc3)cc2)cc1-c1cccc(C(F)(F)F)c1 |
| 125 to 127 | O=C(Cn1ccnc1[N+](=O)[O-])c1cccnc1 |
| 154 to 158 | CCCCc1oc2ccccc2c1C(=O)NCc1ccc2c(-c3ccc(Cl)cc3)c(OCC#N)ccc2c1 |
| 123 | CC(=O)Nc1cc([N+](=O)[O-])ccc1OCC(C)O (centres undefined) |
| 115 to 118 | CC[C@H](CO)Nc1nc(NCc2ccccc2)c2nnn(C(C)C)c2n1 |
| 216 to 217 | CC(=O)N1[C@@H](C(=O)O)C(C)(C)S[C@H]1c1ccccc1 |
| 385 to 387 | Cc1cccc2[nH]c(Nc3ccc(CC(=O)O)cc3)nc12 |
| 62 to 63 | CCC(CCCc1cc(OC)c(OC)c(OC)c1)(c1cccs1)N(C)C (centres undefined) |
| 160 to 163 | Cn1c(SCc2ccccc2)nc2cnc3ccccc3c21 |
| 159 to 161 | CC1Cc2cc3c(cc2C(C=Cc2ccc(N)cc2)=NN1)OCO3 (centres undefined) |
| 170 to 171 | Cc1nccc(N)c1N |
| 225 to 227 | COC(=O)C1=C(C)NC2=C(C(=O)CN(Cc3ccccc3)C2)C1c1ccccc1C(F)(F)F (centres undefined) |
| 107 to 120 | CC(CF)(CF)C(O)C(Oc1cccc(C(F)(F)F)c1)n1ccnc1 (centres undefined) |
| 112 to 113 | Cc1cccc(-c2ccc(Cl)nn2)c1 |
| 81 to 84 | COc1ccc(-c2cc(C)c(N)c(C=O)c2)cn1 |
| 283 | N#Cc1cc(-n2cnnc2)cc(C(F)(F)F)c1N |
| 160 to 162 | Cc1ccc2c(-c3ccoc3)cc(=O)oc2c1 |
| 110 to 112 | CNc1nc(-c2cccc(NC(=O)c3ccc(OCc4ccccc4)cc3)c2)c2cc(OC)c(OC)cc2n1 |

| melting point [°C] | Structure (SMILES) |
| --- | --- |
| 110 to 112 | Cc1cc(C)c(Cc2cnc(NCCCCc3ncc(Br)cc3C)[nH]c2=O)cn1 |
| 173 | CCc1ccc2[nH]c(C(=O)O)cc2c1 |
| 265 to 268 | O=c1[nH]c2cc(Cl)ccc2c(O)c1Sc1cccc(Br)c1 |
| 107 to 109 | CCCCOCCOc1ccc(-c2ccc3c(c2)C=C(C(=O)Nc2ccc(CSc4nnc(C)o4)cc2)CCN3CC(C)C)cc1 |
| 147 to 149 | N=C(Nc1ccccc1)Nc1ncccc1OCc1c(F)cccc1Cl |
| 134 to 135 | OC/C=C/c1ccc(OCc2coc(-c3ccccc3)n2)c(F)c1 |
| 111 | O=C(O)[C@@H](O)Cc1ccc(O)c([N+](=O)[O-])c1 |
| 99 to 102 | CCOC(=O)c1nc2ccc(F)cc2n(CC)c1=O |
| 120 to 122 | CC(C)Oc1ccc(N)c(C(=O)O)c1 |
| 200 to 202 | N#Cc1cccc2c1CCC2=NO |
| 97 to 98 | Cc1cc2c(c3occ(-c4ccc(C(C)C)cc4)c13)CCCC2 |
| 131 to 132 | COc1cc(CN2CCC(=O)C(C(c3ccccc3)c3ccccc3)C2)ccc1O (centres undefined) |
| 109 to 110 | COc1cc2c(cc1OCc1ccccc1)CCN(C(=O)NCCN(C)C1CCCCC1)C2c1ccccc1 (centres undefined) |
| 153 to 154 | NC(=O)NCCn1cc(Cn2ccnc2)c2ccccc21 |
| 51 to 52 | CCCCCCCCOc1ccc(CP(=O)(OC)OC)c2c(CP(=O)(OC)OC)cccc12 |
| 38 to 39 | CCCCCCCCCCCCCCC(=O)C(=O)N[C@@H](CCCC)C(=O)NCC(=O)OC(C)(C)C |
| 103 to 104 | CCOC(=O)c1cc(Cl)cnc1NC(=O)Cc1cccc(Oc2ccccc2)c1 |

| Structure (SMILES) | melting point [°C] |
| --- | --- |
| CCNn1cc(C(=O)O)c(=O)c2cc(F)c(N3CCNCC3)cc21 | 289 to 291 |
| CCOC(=O)c1ncn2c1CN(Cc1ccc(OC)cc1OC)C(=O)c1ccccc1-2 | 136 to 138 |
| Cc1ccccc1-n1c(Cn2cnc3c(N)ncnc32)nc2cccc(C)c2c1=O | 282 to 283 |
| Cc1cc(Cl)cc(C(=O)NCC2(C)CC2)c1NC(=O)c1cc(C(F)(F)F)nn1-c1ncccc1Cl | 210 |
